Data taken from patent US6586617B1, “Sulfonamide derivatives” (Sumitomo Chemical Takeda Agro Company, Limited, priority 1999, dated 2003).
Read-outs that look alike come from different tables or passages of the source.

What was measured:
[1] = system: apple Alternaria leaf blotch (Alternaria mali); assay: Test Example 5: apple Alternaria leaf blotch, single and combined fungicides (Table 2); assay type: in vivo; conditions: for Lesion area ratio (%) / Protection value: apple seedlings; for protection effect in combination compared with estimated protection effect (synergy): in combination with chlorothalonil, hexaconazole and azoxystrobin
[2] = system: cucumber gray mold (Botrytis cinerea); assay: Test Example 9: cucumber gray mold, single and combined fungicides (Table 6); conditions: for Lesion area ratio (%) / Protection value: young cucumber (Yotsuba)
Method: (§1) The protection value was calculated by means of the equation as follows. protection value=(1−(lesion area in the division treated with fungicide)/lesion area in the division not treated with fungicide))×100
(§2) An estimated protection value of a mixture of active ingredients was calculated according to the Colby's formula [R. S. Colby, Weeds 15, 20-22 (1967)] and compared with the experimental protection value.
[wherein, E is the estimated protection value (additive effect) which will be obtained when the active ingredients A and B are used in a mixture in concentrations a and b, respectively x is the protection value obtained when the active igredient A is used in a concentration a, and y is the protection value obtained when the active ingredient B is used in a concentration b. […] A protection value equal 0 means that the lesion area ratio of the plants in the test group is as large as that of the plants in the untreated control group. A protection value equals 100 means that the plants in the test group are free from the disease.
The test compound (denoted by the compound No. in Table 1 above), azoxystrobin, mepanipyrim and iprodione, individually or in combination, were dissolved in dimethylformamide (final concentration was 1 wt %). Xylene (final concentration was 0.02 wt %) and Tween 20 (Trade Name) (final concentration was 0.02 wt %) were added to the solution. The resulting mixture was diluted with water to give a test solution which contained a given concentration (ppm) of the active ingredient. A spreader adjuvant SINDAIN (Trade Name, Manufactured by Takeda Chemical Industries, Ltd, and comprises 20 wt % of polyoxyethylene nonylphenyl ether and 12 wt % of calcium ligninsulfonate) was added to this solution in the final concentration of 0.05 wt % to give a spray agent.
The spray agent was sprayed in an amount of 10 ml/pot on young cucumber (cultural variety: Yotsuba) cultivated for 3 to 4 weeks in a greenhouse. After drying up in a room, the treated cucumbers were inoculated with pathogenic fangi on the leaves by placing the mycelial disks which were cut out from a PSA medium grown with Botrytis cinerea and then kept in a greenhouse at 28° C. for 3 days. Then, the ratio of the lesion area on the plants treated with the test compound and that on the plants treated with another substances to that on untreated plants was investigated.

[3] = system: rice blast (Pyricularia oryzae); assay type: in vivo; conditions: for Lesion area ratio (%) / Protection value: rice plants
[4] = system: apple Alternaria leaf blotch (Alternaria mali); assay: Test Example 6: apple Alternaria leaf blotch, single and combined fungicides (Table 3); conditions: for Lesion area ratio (%) / Protection value: apple leaves; for protection effect in combination compared with estimated protection effect (synergy): in combination with mepanipyrim (No. 289) and iminoctadine (No. 97), respectively
Method: as §1, §2
[wherein, E is the estimated protection value (additive effect) which will be obtained when the active ingredients A and B are used in a mixture in concentrations a and b, respectively x is the protection value obtained when the active igredient A is used in a concentration a, and y is the protection value obtained when the active ingredient B is used in a concentration b.

[5] = system: rice Helminthosporium leaf spot (Cochliobolus miyabeanus); assay: Test Example 8: rice Helminthosporium leaf spot, single and combined fungicides (Table 5); assay type: in vivo; conditions: for Lesion area ratio (%) / Protection value: young rice plants

## CO/C=C(/C(=O)OC)c1ccccc1Oc1cc(Oc2ccccc2C#N)ncn1 [Azoxystrobin, azoxystrobin, reference compound]
[1]; 6.3 ppm active ingredient
  Lesion area ratio (%): 25.8%
  Protection value: 56
[1]; 25 ppm active ingredient
  Lesion area ratio (%): 25.0%
  Protection value: 58
[2]; 10 ppm active ingredient
  Lesion area ratio (%): 3.9%
  Protection value: 69.8
[3]; 0.1 ppm active ingredient
  Lesion area ratio (%): 11.0%
  Protection value: 56
[3]; 0.5 ppm active ingredient
  Lesion area ratio (%): 5.0%
  Protection value: 80

## N#Cc1c(Cl)c(Cl)c(Cl)c(C#N)c1Cl [Chlorothalonil, chlorothalonil, reference compound]
[1]; 6.3 ppm active ingredient
  Lesion area ratio (%): 43.5%
  Protection value: 27
[1]; 25 ppm active ingredient
  Lesion area ratio (%): 60.0%
  Protection value: 0
[1]; 100 ppm active ingredient
  Lesion area ratio (%): 16.8%
  Protection value: 72

## Cc1ccc(S(=O)(=O)N(C)c2ccccc2[N+](=O)[O-])cc1 [Compound No. 38, N-Methyl-2′-nitro-p-toluenesulfonanilide]
other
  melting point: 131.5 to 132.5 °C

## Cc1ccc(S(=O)(=O)N(c2ccc(Cl)cc2C#N)C(C)C)cc1 [Compound No. 97, 4′-Chloro-2′-cyano-N-isopropyl-p-toluenesulfonanilide]
[4]; 0.4 ppm active ingredient
  Lesion area ratio (%): 25.0%
  Protection value: 65
[4]; 1.6 ppm active ingredient
  Lesion area ratio (%): 19.2%
  Protection value: 73
[4]; 6.3 ppm active ingredient
  Lesion area ratio (%): 8.0%
  Protection value: 89
[4]
  protection effect in combination compared with estimated protection effect (synergy): higher protection effect

## CCN(c1ccc(SC)cc1[N+](=O)[O-])S(=O)(=O)c1ccc(C)cc1 [Compound No. 227, N-Ethyl-4′-methylthio-2′-nitro-p-toluenesulfonanilide]
other
  melting point: 135 to 136 °C

## CCN(c1ccc(Cl)cc1[N+](=O)[O-])S(=O)(=O)c1ccc(C)cc1 [Compound No. 289, 4′-Chloro-N-ethyl-2′-nitro-p-toluenesulfonanilide]
[4]; 0.4 ppm active ingredient
  Lesion area ratio (%): 18.3%
  Protection value: 74
[4]; 1.6 ppm active ingredient
  Lesion area ratio (%): 13.7%
  Protection value: 81
[4]; 6.3 ppm active ingredient
  Lesion area ratio (%): 9.3%
  Protection value: 87
[4]
  protection effect in combination compared with estimated protection effect (synergy): higher protection effect
[5]; 25 ppm active ingredient
  Lesion area ratio (%): 5.0%
  Protection value: 71.4
[5]; 100 ppm active ingredient
  Lesion area ratio (%): 4.5%
  Protection value: 74.3
[5]; in combination with ferimzone
  protection effect in combination compared with estimated protective effect (synergy): higher protection effect
[1]; 0.4 ppm active ingredient
  Lesion area ratio (%): 36.9%
  Protection value: 38
[1]; 1.6 ppm active ingredient
  Lesion area ratio (%): 20.8%
  Protection value: 65
[1]; 6.3 ppm active ingredient
  Lesion area ratio (%): 3.8%
  Protection value: 94
[1]; 25 ppm active ingredient
  Lesion area ratio (%): 4.3%
  Protection value: 93
[1]
  protection effect in combination compared with estimated protection effect (synergy): higher protection effect
[2]; 100 ppm active ingredient
  Lesion area ratio (%): 13.2%
  Protection value: 0.0
[2]; in combination with azoxystrobin, mepanipyrim and iprodione
  protection effect in combination compared with estimated protection effect (synergy): higher protection effect
[3]; 100 ppm active ingredient
  Lesion area ratio (%): 25.0%
  Protection value: 0
[3]; 200 ppm active ingredient
  Lesion area ratio (%): 25.0%
  Protection value: 0
[3]; in combination with azoxystrobin
  protection effect in combination compared with estimated protection effect (synergy): higher protection effect

## Cc1ccc(S(=O)(=O)N(c2ccc([N+](=O)[O-])cc2C#N)C(C)C)cc1 [Compound No. 421]
[1]; 0.4 ppm active ingredient
  Lesion area ratio (%): 24.7%
  Protection value: 58
[1]; 1.6 ppm active ingredient
  Lesion area ratio (%): 20.0%
  Protection value: 66
[1]; 6.3 ppm active ingredient
  Lesion area ratio (%): 2.3%
  Protection value: 96
[1]; 25 ppm active ingredient
  Lesion area ratio (%): 0.3%
  Protection value: 99
[1]
  protection effect in combination compared with estimated protection effect (synergy): higher protection effect

## CON(c1ccc([N+](=O)[O-])cc1Cl)S(=O)(=O)c1cc(Cl)ccc1Cl [Compound No. 528, N-Methoxy-4′-nitro-2,2′,5-trichlorobenzenesulfonanilide]
other
  melting point: 136 to 138 °C

## C/C(=N/Nc1nc(C)cc(C)n1)c1ccccc1C [Ferimzone, ferimzone, reference compound]
[5]; 25 ppm active ingredient
  Lesion area ratio (%): 1.5%
  Protection value: 91.4
[5]; 100 ppm active ingredient
  Lesion area ratio (%): 0.4%
  Protection value: 98.0

## CCCCC(O)(Cn1cncn1)c1ccc(Cl)cc1Cl (stereo not drawn) [Hexaconazole, hexaconazole, reference compound]
[1]; 0.4 ppm active ingredient
  Lesion area ratio (%): 70.0%
  Protection value: 0
[1]; 1.6 ppm active ingredient
  Lesion area ratio (%): 66.7%
  Protection value: 0
[1]; 6.3 ppm active ingredient
  Lesion area ratio (%): 21.7%
  Protection value: 63

## N=C(N)NCCCCCCCCNCCCCCCCCNC(=N)N [Iminoctadine, iminoctadine, reference compound]
[4]; 0.4 ppm active ingredient
  Lesion area ratio (%): 66.7%
  Protection value: 6
[4]; 1.6 ppm active ingredient
  Lesion area ratio (%): 33.8%
  Protection value: 52
[4]; 6.3 ppm active ingredient
  Lesion area ratio (%): 35.0%
  Protection value: 51

## CC(C)NC(=O)N1CC(=O)N(c2cc(Cl)cc(Cl)c2)C1=O [Iprodione, iprodione]
[2]; 10 ppm active ingredient
  Lesion area ratio (%): 3.7%
  Protection value: 71.3

## CC#Cc1cc(C)nc(Nc2ccccc2)n1 [Mepanipyrim, mepanipyrim, reference compound]
[4]; 0.4 ppm active ingredient
  Lesion area ratio (%): 68.3%
  Protection value: 4
[4]; 1.6 ppm active ingredient
  Lesion area ratio (%): 73.3%
  Protection value: 0
[4]; 6.3 ppm active ingredient
  Lesion area ratio (%): 19.3%
  Protection value: 73
[2]; 10 ppm active ingredient
  Lesion area ratio (%): 6.0%
  Protection value: 53.8
